Km and Vmax data for 1 compound are collected here from patent publication US20250129344A1, “MODIFIED GLUTAMATE DEHYDROGENASE AND APPLICATION THEREOF” (Hunan Lier Biotech Co., Ltd., priority 2021, published 2025).

SMILES strings stand for the structures.

What all share (test): Dynamic properties (Michaelis-Menten) of BvGluDH mutant, PPO reductive amination
Assay type in all cases: biochemical
Conditions in all cases: PPO 5-100 mM, NADPH 0.15 mM, NH4Cl 50 mM, PBS pH 7.5, 30° C., diluted crude enzyme, 340 nm

In test [1] the test system is Bacillus velezensis glutamate dehydrogenase (BvGluDH, SEQ ID NO: 1) variant A175G, SEQ ID NO: 3. As for the experimental part:
(§1) A plurality of reaction systems (200 μL) comprising PBS of 100 mM pH 7.5 (pH was adjusted with aqueous ammonia solution), NADPH (reductive) of 0.15 mM, NH4Cl of 50 mM, diluted (500 folds) crude enzyme solution of 10% volume and the substrate PPO at various concentrations (5-100 mM) were formulated on a 96-well plate. The intensity of the UV absorption at 340 nm was detected at 30° C., and the rate of change in absorption over time (mA/min) was recorded. The obtained parameters were plugged into Michaelis-Menten equation, in which the reaction velocity was calculated with the rate of change in absorption.
(§2) The mutants were prepared with the coding nucleic acid of BvGluDH (SEQ ID NO: 1) as the template, and the enzyme activities and the dynamic parameters Vmax and Km were measured, according to the method of Example 1. The resulted mutants and the enzyme activities and the dynamic parameters thereof are shown in Table 1, and the relative enzyme activity means the percentage of the enzyme activity of the mutant to the enzyme activity of the mutant of SEQ ID NO: 3.

Test [2] concerns Bacillus velezensis glutamate dehydrogenase (BvGluDH, SEQ ID NO: 1) variant A175G-A182R, SEQ ID NO: 11. The procedure: as §1, §2
Test [3] deals with Bacillus velezensis glutamate dehydrogenase (BvGluDH, SEQ ID NO: 1) variant A175G-G181K, SEQ ID NO: 9. The procedure:
as §1, §2

Test [4] deals with Bacillus velezensis glutamate dehydrogenase (BvGluDH, SEQ ID NO: 1) variant A175G-G181R, SEQ ID NO: 10. The procedure: as §1, §2
Test [5] has as its system Bacillus velezensis glutamate dehydrogenase (BvGluDH, SEQ ID NO: 1) variant A175G-I133V, SEQ ID NO: 6. As for the experimental part:
as §1, §2

The subject of test [6] is Bacillus velezensis glutamate dehydrogenase (BvGluDH, SEQ ID NO: 1) variant A175G-L104C, SEQ ID NO: 4. The procedure: as §1, §2
Test [7] relates to Bacillus velezensis glutamate dehydrogenase (BvGluDH, SEQ ID NO: 1) variant A175G-P132L, SEQ ID NO: 5. As for the experimental part: as §1, §2
Test [8] concerns Bacillus velezensis glutamate dehydrogenase (BvGluDH, SEQ ID NO: 1) variant A175G-V173G, SEQ ID NO: 8. The procedure: as §1, §2
The subject of test [9] is Bacillus velezensis glutamate dehydrogenase (BvGluDH, SEQ ID NO: 1) variant A175G-V173G-A182R, SEQ ID NO: 21. The procedure: as §1, §2
Test [10] relates to Bacillus velezensis glutamate dehydrogenase (BvGluDH, SEQ ID NO: 1) variant A175G-V173S, SEQ ID NO: 7. The procedure:
as §1, §2

As for `CP(=O)(O)CCC(=O)C(=O)O` [PPO, 2-carbonyl-4-(hydroxymethylphosphono) butyric acid], the Michaelis-Menten constant (Km) came out at 73 mM in test [1]; 46 mM in test [2]; 80 mM in test [3]; 84 mM in test [4]; 43 mM in [5]; 34 mM in [6]. Also, the Km in test [7] turned out to be 32 mM; in test [8] it was 53 mM; in test [9], 23 mM; in [10] it was 52 mM. In addition, the Vmax was 60 mA/min in [1]; 61 mA/min in [2]; 70 mA/min in test [3]; 77 mA/min in test [4]; 59 mA/min in test [5]; 60 mA/min in test [6]. Moreover, the Vmax in test [7] is 56 mA/min; in test [8] it was 80 mA/min; in test [9] it was 71 mA/min; in [10] it was 79 mA/min.
